According to ChEMBL document CHEMBL4402507, “Tyrosinase inhibitory study of flavonolignans from the seeds of Silybum marianum (Milk thistle)” (Bioorg Med Chem, 2019):
Calls of active or inactive are those of the source. No cut-off for these calls is given here.

How the values were obtained:
Tyrosinase [1] = biological target: T1, Tyrosinase (Agaricus bisporus, UniProt O42713); test: Inhibition of monophenolase activity of mushroom tyrosinase assessed as reduction in dopachrome formation using L-Tyrosine substrate by UV-Vis spectrophotometry
T1 sequence (O42713 whole entry): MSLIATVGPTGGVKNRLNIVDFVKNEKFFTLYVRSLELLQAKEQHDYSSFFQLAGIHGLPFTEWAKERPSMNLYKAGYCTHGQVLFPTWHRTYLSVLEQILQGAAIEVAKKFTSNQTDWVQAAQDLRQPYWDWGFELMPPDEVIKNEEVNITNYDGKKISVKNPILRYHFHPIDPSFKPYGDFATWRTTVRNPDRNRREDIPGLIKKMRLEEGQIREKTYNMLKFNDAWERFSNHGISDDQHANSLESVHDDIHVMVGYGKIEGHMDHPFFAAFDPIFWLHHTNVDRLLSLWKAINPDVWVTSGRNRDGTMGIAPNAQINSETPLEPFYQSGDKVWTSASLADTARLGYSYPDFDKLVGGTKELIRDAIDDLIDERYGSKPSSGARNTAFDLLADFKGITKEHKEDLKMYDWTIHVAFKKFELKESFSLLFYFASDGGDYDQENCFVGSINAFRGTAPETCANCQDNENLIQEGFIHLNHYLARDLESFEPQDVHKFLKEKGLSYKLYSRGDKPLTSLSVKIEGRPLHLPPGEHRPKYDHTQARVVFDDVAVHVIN

[2] = biological target: T2, Tyrosinase (Agaricus bisporus) (UniProt O42713); test: Inhibition of monophenolase activity of mushroom tyrosinase assessed as reduction in steady state rate monophenolase activity for oxidation of L-tyrosine substrate at 0.5 to 16 uM by UV-Vis spectrophotometry
T2 sequence (whole entry): T1 sequence (O42713 whole entry)

Tyrosinase [3] = biological target: T1, Tyrosinase; test: Inhibition of diphenolase activity of mushroom tyrosinase assessed as reduction in dopachrome formation using L-DOPA substrate by UV-Vis spectrophotometry
Tyrosinase [4] = biological target: T1, Tyrosinase
Tyrosinase [5] = biological target: T1, Tyrosinase; remark: listed apart in the source
Description: Mixed type inhibition of diphenolase activity of mushroom tyrosinase assessed as reduction in dopachrome formation using L-DOPA substrate by UV-Vis spectrophotometry based Dixon plot analysis

Tyrosinase [6] = biological target: T1, Tyrosinase; remark: listed apart in the source
Description: Inhibition of monophenolase activity of mushroom tyrosinase assessed as inhibition constant for free enzyme-inhibitor complex by measuring reduction in dopachrome formation using L-Tyrosine substrate by UV-Vis spectrophotometry

[7] = biological target: T2, Tyrosinase (Agaricus bisporus); test: Binding affinity to mushroom tyrosinase assessed as Stern-Volmer quenching constant by fluorescence spectrophotometry
[8] = biological target: T2, Tyrosinase (Agaricus bisporus); test: Inhibition of monophenolase activity of mushroom tyrosinase assessed as increase in lag period of monophenolase for oxidation of L-tyrosine substrate at 0.5 to 16 uM by UV-Vis spectrophotometry
[9] = biological target: T2, Tyrosinase (Agaricus bisporus)
Description: Inhibition of diphenolase activity of mushroom tyrosinase assessed as inhibition constant for enzyme-substrate-inhibitor complex by measuring reduction in dopachrome formation using L-DOPA substrate by UV-Vis spectrophotometry

[10] = biological target: T2, Tyrosinase (Agaricus bisporus); remark: listed apart in the source
Description: Inhibition of monophenolase activity of mushroom tyrosinase assessed as inhibition constant for enzyme-substrate-inhibitor complex by measuring reduction in dopachrome formation using L-Tyrosine substrate by UV-Vis spectrophotometry

Tyrosinase [11] = biological target: T1, Tyrosinase; remark: listed apart in the source
Description: Inhibition of diphenolase activity of mushroom tyrosinase assessed as inhibition constant for free enzyme-inhibitor complex by measuring reduction in dopachrome formation using L-DOPA substrate by UV-Vis spectrophotometry

[12] = biological target: T2, Tyrosinase (Agaricus bisporus); test: Binding affinity to mushroom tyrosinase assessed as binding constant by fluorescence spectrophotometry
Tyrosinase [13] = biological target: T1, Tyrosinase; remark: listed apart in the source
Description: Competitive type inhibition of diphenolase activity of mushroom tyrosinase assessed as reduction in dopachrome formation using L-DOPA substrate by UV-Vis spectrophotometry based Dixon plot analysis

Tyrosinase [14] = biological target: T1, Tyrosinase; remark: listed apart in the source
Description: Competitive type inhibition of monophenolase activity of mushroom tyrosinase assessed as reduction in dopachrome formation using L-Tyrosine substrate by UV-Vis spectrophotometry based Dixon plot analysis

[15] = biological target: T2, Tyrosinase (Agaricus bisporus); test: Binding affinity to mushroom tyrosinase by fluorescence spectrophotometry
[16] = biological target: T2, Tyrosinase (Agaricus bisporus); test: Inhibition of monophenolase activity of mushroom tyrosinase assessed as lag time period of monophenolase for oxidation of L-tyrosine substrate at 16 uM by UV-Vis spectrophotometry (reference value: […] secs)
[17] = biological target: T2, Tyrosinase (Agaricus bisporus); test: Inhibition of monophenolase activity of mushroom tyrosinase assessed as reduction in N-acetyl-L-dopaquinone formation at 25 uM using N-acetyl-L-tyrosine substrate incubated up to 60 mins by HPLC analysis

| Structure (SMILES) | IC50 (Tyrosinase [1]) [µM] | inhibition [2] | IC50 (Tyrosinase [3]) [µM] | Ki (Tyrosinase [4]) [µM] | Ki (Tyrosinase [5]) [µM] | Ki (Tyrosinase [6]) [µM] | KSV [7] [×10⁴ L/mol] | inhibition [8] | Kis [9] [µM] | Kis [10] [µM] | Ki (Tyrosinase [11]) [µM] | KA [12] [×10⁶ L/mol] | Ki (Tyrosinase [13]) [µM] | Ki (Tyrosinase [14]) [µM] | Activity [15] | TIME [16] [h] | inhibition [17] |
| --- | --- | --- | --- | --- | --- | --- | --- | --- | --- | --- | --- | --- | --- | --- | --- | --- | --- |
| COc1cc([C@@H]2Oc3c(O)cc(-c4oc5cc(O)cc(O)c5c(=O)c4O)cc3[C@H]2CO)ccc1O | 7.6 | Dose-dependent effect | 35.9 | 4.7 | 36.7 | 4.6 | 0.0634 | Dose-dependent effect | 146 | 6.4 | 38.3 | 2.25 | – | – | – | – | – |
| COc1cc([C@H]2Oc3cc(O)cc(O)c3C(=O)[C@@H]2O)ccc1O | 51.2 | – | 150 | – | – | – | 0.0222 | – | – | – | – | 0.849 | 73.4 | 20.5 | – | – | – |
| O=C1c2c(O)cc(O)cc2O[C@H](c2ccc(O)c(O)c2)[C@H]1O | – | – | – | – | – | – | 0.0492 | – | – | – | – | 0.918 | – | – | – | – | – |
| O=C1c2c(O)cc(O)cc2O[C@H](c2ccc(O)cc2)[C@H]1O [DIHYDROKAEMPFEROL] | 73.6 | – | > 200 | – | – | – | 0.0199 | – | – | – | – | 0.094 | – | 42 | Dose-dependent effect | – | – |
| COc1cc([C@@H]2Oc3ccc([C@H]4Oc5cc(O)cc(O)c5C(=O)[C@@H]4O)cc3O[C@H]2CO)ccc1O [ISOSILYBIN B] | 4.9 | Dose-dependent effect | 19.8 | 4.2 | 11.6 | 4.3 | 0.0882 | Dose-dependent effect | 25.2 | 8 | 12.7 | 2.42 | – | – | – | – | – |
| COc1cc([C@@H]2Oc3c(O)cc([C@H]4Oc5cc(O)cc(O)c5C(=O)[C@@H]4O)cc3[C@H]2CO)ccc1O [SILICRISTIN A] | 3.2 | Dose-dependent effect | 28.8 | 2.1 | 15.4 | 2.1 | 0.192 | Dose-dependent effect | 37.3 | 2.9 | 15.2 | 3.55 | – | – | – | – | – |
| COc1cc([C@H]2Oc3c(O)cc([C@H]4Oc5cc(O)cc(O)c5C(=O)[C@@H]4O)cc3[C@@H]2CO)ccc1O [SILICRISTIN B] | 4.5 | Dose-dependent effect | 44.9 | 2.8 | 35.5 | 2.8 | 0.109 | Dose-dependent effect | 91.3 | 14 | 34.7 | 2.88 | – | – | – | – | – |

Now from value to compound:

| IC50 (Tyrosinase [1]) [µM] | inhibition [2] | IC50 (Tyrosinase [3]) [µM] | Ki (Tyrosinase [4]) [µM] | Ki (Tyrosinase [5]) [µM] | Ki (Tyrosinase [6]) [µM] | KSV [7] [×10⁴ L/mol] | inhibition [8] | Kis [9] [µM] | Kis [10] [µM] | Ki (Tyrosinase [11]) [µM] | KA [12] [×10⁶ L/mol] | Ki (Tyrosinase [13]) [µM] | Ki (Tyrosinase [14]) [µM] | Activity [15] | TIME [16] [h] | inhibition [17] | Structure (SMILES) |
| --- | --- | --- | --- | --- | --- | --- | --- | --- | --- | --- | --- | --- | --- | --- | --- | --- | --- |
| 1.7 | Dose-dependent effect | 12.1 | 0.7 | 8.5 | 0.7 | 0.261 | Dose-dependent effect | 27.6 | 3.7 | 8.4 | 6.16 | – | – | – | – | – | COc1cc(C2Oc3cc([C@H]4Oc5cc(O)cc(O)c5C(=O)[C@@H]4O)ccc3OC2CO)ccc1O (mixture of isomers) [SILIBININ] |
| 2.1 | Dose-dependent effect | 16.7 | 1.1 | 12.4 | 1.1 | 0.267 | Dose-dependent effect | 29.5 | 3.2 | 12.3 | 6.31 | – | – | Dose-dependent effect | 0.0833 | Active | COc1cc([C@H]2Oc3ccc([C@H]4Oc5cc(O)cc(O)c5C(=O)[C@@H]4O)cc3O[C@@H]2CO)ccc1O [ISOSILYBIN A] |
| 2.6 | Dose-dependent effect | 16.5 | 1.7 | 14.9 | 2.1 | 0.193 | Dose-dependent effect | 90.8 | 2.3 | 15 | 5.81 | – | – | – | – | – | COc1cc([C@@H]2[C@H]3CO[C@@]4(O)C(=O)[C@@H]2C=C([C@H]2Oc5cc(O)cc(O)c5C(=O)[C@@H]2O)[C@@H]34)ccc1O [SILIDIANIN] |
